These results are taken from patent US20250236589A1, “THERAPEUTIC PHENETHYLAMINE COMPOSITIONS AND METHODS OF USE” (Cybin IRL Limited, priority 2022, published 2025).

Read-outs that look alike come from different tables or passages of the source.

Broadly, the EC50 is the concentration that produces a half-maximal response. A lower EC50 goes with greater potency. One may read the Emax as the size of the effect at its maximum, as opposed to the concentration needed.

The target of one data set is 5-HT2C receptor (Homo sapiens (Human), UniProt P28335). In words: 5-HT2C functional assay, IP1 (IPOne). The class given is cell-based. The note with it: for Emax: IP1 assay, relative to 5-HT. On the procedure: 5-HT2A,2B,2C receptor-mediated Gq activation—canonical signaling pathways—[phosphoinositide hydrolysis leading to the production of inositol phosphate 1 (IP1, IPOne, Cisbio assay) or direct G-protein activation using TRUPATH technology]were measured as previously described (Porter, R. H. P., Benwell, K. R., Lamb, H., Malcolm, C. S., Allen, N. F., Revell, D. F., Adams, D. R. and Sheardown, M. J., 1999, Functional characterization of agonists at recombinant human 5-HT2a, 5HT2b and 5-HT2c receptors in CHO-K1 cells, Brit J Pharmacol 128, 13; Olsen, R. H. J., DiBerto, J. F., English, J. G. et al. TRUPATH, an open-source biosensor platform for interrogating the GPCR transducerome. […] Briefly, for the IPOne assay, for 5-HT2ARs, CHO-K1 or HEK-293 cells were incubated with test articles and 5-HT (positive control) in stimulation buffer containing LiCl. After incubation, cells were lysed and fluorescence acceptor and donor were added. FRET was measured after 60 min at room temperature using a microplate reader (Envision, Perkin Elmer). TRUPATH assays followed a similar workflow, except that different reagents were used, and LiCl was not included in the samples; the protocol was based on the report by Olsen, R. H. J. et al., cited above.
Chain of 5-HT2C receptor (P28335 whole entry, looked up): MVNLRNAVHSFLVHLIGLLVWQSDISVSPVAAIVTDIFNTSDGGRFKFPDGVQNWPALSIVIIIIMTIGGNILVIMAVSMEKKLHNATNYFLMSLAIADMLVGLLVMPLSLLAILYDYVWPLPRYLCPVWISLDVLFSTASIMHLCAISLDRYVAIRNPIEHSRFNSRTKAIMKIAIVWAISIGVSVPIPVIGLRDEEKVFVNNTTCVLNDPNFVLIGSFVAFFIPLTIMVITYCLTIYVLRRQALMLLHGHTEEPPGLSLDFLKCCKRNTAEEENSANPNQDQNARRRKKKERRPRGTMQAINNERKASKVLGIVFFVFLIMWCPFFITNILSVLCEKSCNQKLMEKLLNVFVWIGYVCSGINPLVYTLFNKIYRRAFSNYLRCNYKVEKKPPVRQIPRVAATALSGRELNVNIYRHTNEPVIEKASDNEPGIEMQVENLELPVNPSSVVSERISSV

Data set [1] is described as follows: In vitro liver microsome stability (HLM). The class given is in vitro ADME. The note with it: human, human liver microsomes, 0.5 mg/mL microsomes, NADPH, read-out: HLM, t1/2. As to the method: In vitro stability was determined in Human (HLM), Rat (RLM), Mouse (MsLM), and dog (DLM) Liver Microsomes. All liver microsomes were purchased from a commercial supplier (e.g. XenoTech). The reaction mixture, minus NADPH, was prepared as described below. The test compound was added into the reaction mixture at a final concentration of 1 μM or co-dosed with their deuterated analog(s) at 1 μM each. The control compound, testosterone, was run simultaneously with the test compound in a separate reaction. The reaction mixture (without cofactor) was equilibrated in a shaking water bath at 37° C. for 5 minutes. The reaction was initiated by the addition of the cofactor, and the mixture was incubated in a shaking water bath at 37° C. Aliquots (150 μL) were withdrawn at 0, 5, 10, 20, 30, 60, and 120 minutes. Test compound and testosterone samples were immediately combined with 150 μL of ice-cold acetonitrile (ACN) containing 0.1% formic acid and internal standard to terminate the reaction. The samples were then mixed and centrifuged to precipitate proteins. All samples were assayed by LC-MS/MS using electrospray ionization. […] Half-lives were calculated using GraphPad software, fitting to a single-phase exponential decay equation.
For orientation: Microsomes from liver hold many membrane-bound enzymes, among them those of drug oxidation.

The target in the next data set is 5-HT1A (h) (Homo sapiens (Human), UniProt P08908). In words: Off-target screen, radioligand displacement at 10 μM. The class given is binding. The note with it: agonist radioligand. (In general: Displacement assays read how much labelled ligand stays bound in the presence of the test substance.)
The next data set addresses Dopamine D3 (h) (Homo sapiens (Human), UniProt P35462). Described as above. In kind it is binding.
In data set [2] the test system is sigma (non-selective) (h). Described as above. The class given is binding, human. Conditions: agonist radioligand.
Another data set addresses Adenosine A2A (h) (Homo sapiens (Human), UniProt P29274). The description is as above. The class given is binding.
Data set [3] concerns the target BZD (peripheral) (rat heart) (Rattus norvegicus (Rat), UniProt P16257). Described as above. Conditions: read-out: binding at 10 μM.
Data set [4] concerns the target Cholecystokinin CCK2 (CCKB) (h) (Homo sapiens (Human), UniProt P32239). The description is as above. Conditions: read-out: binding at 10 μM.
In a further data set the target is Endothelin ETA (h) (Homo sapiens (Human), UniProt P25101). The description is as above. Conditions: read-out: binding at 10 μM.
Chain of Endothelin ETA (h) (P25101 whole entry, looked up): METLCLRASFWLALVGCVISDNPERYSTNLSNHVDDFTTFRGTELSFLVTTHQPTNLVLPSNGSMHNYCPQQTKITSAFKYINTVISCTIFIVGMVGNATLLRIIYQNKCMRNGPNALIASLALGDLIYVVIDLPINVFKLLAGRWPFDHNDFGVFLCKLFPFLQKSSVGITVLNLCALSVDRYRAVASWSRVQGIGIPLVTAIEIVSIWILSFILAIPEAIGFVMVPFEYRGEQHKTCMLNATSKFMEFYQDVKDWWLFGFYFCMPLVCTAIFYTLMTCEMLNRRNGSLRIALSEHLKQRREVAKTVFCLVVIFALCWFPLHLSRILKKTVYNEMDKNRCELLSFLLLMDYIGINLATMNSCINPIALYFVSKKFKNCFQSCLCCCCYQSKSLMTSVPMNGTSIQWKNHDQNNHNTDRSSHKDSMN
Another data set has as its target Endothelin ETB (h) (Homo sapiens (Human), UniProt P24530). The data set is described as above. The note with it: read-out: binding at 10 μM.
Data set [5] has as its system Platelet-Derived Growth Factor (PDGF) (m). The description is as above. The class given is binding, mouse.
For a further data set, the target named is Chemokine CCR1 (h) (Homo sapiens (Human), UniProt P32246). The data set is described as above. Conditions: read-out: binding at 10 μM.
Chain of Chemokine CCR1 (h) (P32246 whole entry, looked up): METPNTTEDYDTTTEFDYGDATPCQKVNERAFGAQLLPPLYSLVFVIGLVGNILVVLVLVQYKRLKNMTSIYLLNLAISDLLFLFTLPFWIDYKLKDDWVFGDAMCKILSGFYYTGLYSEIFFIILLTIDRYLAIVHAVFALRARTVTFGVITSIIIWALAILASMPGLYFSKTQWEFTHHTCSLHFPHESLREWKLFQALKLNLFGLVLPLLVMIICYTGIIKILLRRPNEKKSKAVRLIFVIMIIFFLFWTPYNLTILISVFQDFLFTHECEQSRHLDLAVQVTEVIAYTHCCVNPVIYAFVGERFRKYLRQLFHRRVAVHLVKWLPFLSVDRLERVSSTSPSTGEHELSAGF
In the next data set the test system is TNF-α (h). Described as above. In kind it is binding, human.
A further data set deals with Muscarinic M2 (h) (Homo sapiens (Human), UniProt P08172). Described as above. Conditions: read-out: binding at 10 μM.
Chain of Muscarinic M2 (h) (P08172 whole entry, looked up): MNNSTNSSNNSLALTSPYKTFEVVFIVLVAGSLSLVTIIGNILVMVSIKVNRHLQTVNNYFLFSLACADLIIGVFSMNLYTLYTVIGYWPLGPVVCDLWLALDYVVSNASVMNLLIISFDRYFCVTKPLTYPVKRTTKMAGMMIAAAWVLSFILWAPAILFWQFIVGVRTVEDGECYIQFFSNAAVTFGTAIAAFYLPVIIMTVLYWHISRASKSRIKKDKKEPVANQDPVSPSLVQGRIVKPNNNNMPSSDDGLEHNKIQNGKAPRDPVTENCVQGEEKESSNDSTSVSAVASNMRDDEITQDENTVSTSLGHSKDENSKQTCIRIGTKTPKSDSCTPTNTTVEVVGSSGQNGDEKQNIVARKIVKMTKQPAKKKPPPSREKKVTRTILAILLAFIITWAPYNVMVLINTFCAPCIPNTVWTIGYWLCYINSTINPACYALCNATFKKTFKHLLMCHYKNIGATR
For a further data set, the target named is Tachykinin NK3 (h) (Homo sapiens (Human), UniProt P29371). The description is as above. Conditions: read-out: binding at 10 μM.
Chain of Tachykinin NK3 (h) (P29371 whole entry, looked up): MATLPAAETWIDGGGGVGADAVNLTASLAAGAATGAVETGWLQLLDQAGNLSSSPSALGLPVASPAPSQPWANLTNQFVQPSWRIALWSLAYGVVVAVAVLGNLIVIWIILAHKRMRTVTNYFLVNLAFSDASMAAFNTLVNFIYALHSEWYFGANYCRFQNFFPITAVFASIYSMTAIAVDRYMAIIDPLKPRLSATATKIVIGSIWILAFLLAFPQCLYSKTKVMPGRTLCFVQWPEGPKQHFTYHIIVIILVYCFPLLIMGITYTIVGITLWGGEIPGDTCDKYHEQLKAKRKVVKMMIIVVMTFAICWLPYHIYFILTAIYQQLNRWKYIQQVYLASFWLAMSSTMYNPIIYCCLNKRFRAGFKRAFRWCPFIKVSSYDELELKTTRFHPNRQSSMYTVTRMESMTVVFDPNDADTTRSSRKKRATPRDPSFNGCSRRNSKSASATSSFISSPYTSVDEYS
The next data set concerns the target Neurotensin NT1 (h) (Homo sapiens (Human), UniProt P30989). The description is as above. The note with it: read-out: binding at 10 μM.
The target in the next data set is Orphanin ORL1 (h) (Homo sapiens (Human), UniProt P41146). The data set is described as above. Conditions: read-out: binding at 10 μM.
A further data set concerns PCP (rat cortex). Described as above. In kind it is binding.
Another data set concerns the target Prostaglandin EP4 (h) (Homo sapiens (Human), UniProt P35408). The data set is described as above. The note with it: read-out: binding at 10 μM.
Another data set has as its target Glucocorticoid GR (h) (Homo sapiens (Human), UniProt P04150). The description is as above. Conditions: read-out: binding at 10 μM.

Chain of BZD (peripheral) (rat heart) (P16257 whole entry, looked up): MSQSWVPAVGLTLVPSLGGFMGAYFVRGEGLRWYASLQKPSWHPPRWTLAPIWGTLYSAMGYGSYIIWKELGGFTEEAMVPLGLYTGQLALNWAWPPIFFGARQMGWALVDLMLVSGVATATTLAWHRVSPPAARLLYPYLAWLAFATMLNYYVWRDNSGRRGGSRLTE
Chain of Endothelin ETB (h) (P24530 whole entry, looked up): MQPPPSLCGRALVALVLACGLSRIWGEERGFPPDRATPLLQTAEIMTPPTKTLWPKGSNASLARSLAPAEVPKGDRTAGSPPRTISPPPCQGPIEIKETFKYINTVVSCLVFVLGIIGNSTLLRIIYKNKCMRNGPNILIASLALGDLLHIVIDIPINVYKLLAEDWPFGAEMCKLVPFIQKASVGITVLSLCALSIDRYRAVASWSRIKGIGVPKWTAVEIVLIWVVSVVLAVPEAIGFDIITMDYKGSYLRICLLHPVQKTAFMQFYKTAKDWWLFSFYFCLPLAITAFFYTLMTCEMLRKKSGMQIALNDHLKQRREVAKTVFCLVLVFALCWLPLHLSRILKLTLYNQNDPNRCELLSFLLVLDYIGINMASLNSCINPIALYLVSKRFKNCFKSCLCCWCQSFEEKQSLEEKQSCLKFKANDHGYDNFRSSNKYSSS
Chain of Prostaglandin EP4 (h) (P35408 whole entry, looked up): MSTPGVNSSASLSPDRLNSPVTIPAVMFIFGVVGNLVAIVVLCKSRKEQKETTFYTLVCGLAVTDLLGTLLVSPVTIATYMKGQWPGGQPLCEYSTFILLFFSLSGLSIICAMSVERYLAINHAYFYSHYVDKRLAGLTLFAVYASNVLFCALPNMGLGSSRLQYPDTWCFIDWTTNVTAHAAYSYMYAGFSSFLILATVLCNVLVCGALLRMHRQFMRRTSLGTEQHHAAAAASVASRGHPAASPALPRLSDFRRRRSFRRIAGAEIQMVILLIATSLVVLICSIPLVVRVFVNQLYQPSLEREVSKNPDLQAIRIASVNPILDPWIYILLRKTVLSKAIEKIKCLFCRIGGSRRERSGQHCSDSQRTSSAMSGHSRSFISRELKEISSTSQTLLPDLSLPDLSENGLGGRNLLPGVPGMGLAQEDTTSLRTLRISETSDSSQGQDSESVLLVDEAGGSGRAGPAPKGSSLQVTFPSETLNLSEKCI
Chain of Cholecystokinin CCK2 (CCKB) (h) (P32239 whole entry, looked up): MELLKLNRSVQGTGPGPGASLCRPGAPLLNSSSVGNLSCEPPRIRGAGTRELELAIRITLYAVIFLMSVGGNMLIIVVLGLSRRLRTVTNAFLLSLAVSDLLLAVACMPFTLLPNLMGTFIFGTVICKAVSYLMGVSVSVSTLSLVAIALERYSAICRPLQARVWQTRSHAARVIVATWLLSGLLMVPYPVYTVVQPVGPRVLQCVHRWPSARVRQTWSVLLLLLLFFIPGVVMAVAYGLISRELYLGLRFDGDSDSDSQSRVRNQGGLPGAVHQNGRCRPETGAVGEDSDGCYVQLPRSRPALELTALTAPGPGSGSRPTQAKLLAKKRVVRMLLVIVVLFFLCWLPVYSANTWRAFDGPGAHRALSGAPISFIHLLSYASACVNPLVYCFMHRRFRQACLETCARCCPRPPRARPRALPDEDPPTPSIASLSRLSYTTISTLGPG
Chain of Dopamine D3 (h) (P35462 whole entry, looked up): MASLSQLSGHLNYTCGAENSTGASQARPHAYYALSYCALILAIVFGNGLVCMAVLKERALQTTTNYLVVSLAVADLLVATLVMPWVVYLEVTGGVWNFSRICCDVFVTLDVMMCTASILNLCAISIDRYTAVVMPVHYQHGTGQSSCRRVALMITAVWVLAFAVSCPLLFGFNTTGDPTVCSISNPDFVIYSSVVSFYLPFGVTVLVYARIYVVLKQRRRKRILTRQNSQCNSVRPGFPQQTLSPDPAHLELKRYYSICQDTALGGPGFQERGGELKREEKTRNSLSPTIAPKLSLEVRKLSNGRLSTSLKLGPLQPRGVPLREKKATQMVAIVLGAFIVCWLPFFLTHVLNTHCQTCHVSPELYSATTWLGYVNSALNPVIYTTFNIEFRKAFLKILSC
Chain of Neurotensin NT1 (h) (P30989 whole entry, looked up): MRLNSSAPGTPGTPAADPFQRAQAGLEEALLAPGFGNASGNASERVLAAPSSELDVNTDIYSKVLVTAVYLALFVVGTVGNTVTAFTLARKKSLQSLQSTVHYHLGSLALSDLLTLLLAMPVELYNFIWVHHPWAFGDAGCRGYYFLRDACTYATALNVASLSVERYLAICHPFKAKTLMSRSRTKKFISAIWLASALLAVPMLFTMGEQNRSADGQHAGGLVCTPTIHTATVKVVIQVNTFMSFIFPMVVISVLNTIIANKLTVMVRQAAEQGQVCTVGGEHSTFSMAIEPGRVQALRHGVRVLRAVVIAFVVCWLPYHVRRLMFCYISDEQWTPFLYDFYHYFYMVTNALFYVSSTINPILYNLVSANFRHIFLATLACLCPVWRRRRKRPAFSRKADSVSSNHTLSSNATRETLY
Chain of Adenosine A2A (h) (P29274 whole entry, looked up): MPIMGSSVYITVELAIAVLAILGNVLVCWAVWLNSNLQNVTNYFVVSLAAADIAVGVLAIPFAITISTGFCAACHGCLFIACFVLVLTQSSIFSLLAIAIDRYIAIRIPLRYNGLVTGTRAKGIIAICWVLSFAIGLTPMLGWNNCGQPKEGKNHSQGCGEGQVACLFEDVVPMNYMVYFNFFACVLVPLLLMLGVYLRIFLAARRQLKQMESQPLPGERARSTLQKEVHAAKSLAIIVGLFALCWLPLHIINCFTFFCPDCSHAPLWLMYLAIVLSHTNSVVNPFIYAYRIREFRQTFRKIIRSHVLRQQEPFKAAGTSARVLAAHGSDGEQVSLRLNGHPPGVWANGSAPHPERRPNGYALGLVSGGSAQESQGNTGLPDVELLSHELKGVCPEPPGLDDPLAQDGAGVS

Consider `COc1cc(SC(F)(F)F)c(OC)cc1CCN` [Compound I-1, 2-(2,5-dimethoxy-4-((trifluoromethyl)thio)phenyl)ethan-1-amine], for which, at 5-HT2C receptor, the EC50 came out at 7.3 nM. At 5-HT2C receptor (EC50, IP1), the “activation selectivity for 5-HT2C over 5-HT2B” value is on record as about 12 fold. At 5-HT2C receptor, this compound registered an Emax of about 99%. The half-life at 1 μM in [1] is over 2 h. For the same compound, the inhibition at 10 µM at 5-HT1A (h) is over 80%; at Dopamine D3 (h) (antagonist radioligand, read-out: inhibition at 10 μM), 70.4%; in data set [2], 64.1% inhibition at 10 μM; in [3], under 50%; in data set [4], under 50%; at Endothelin ETA (h) it was under 50%. For the same compound, the inhibition at 10 µM at Endothelin ETB (h), at Chemokine CCR1 (h), on Muscarinic M2 (h), at Tachykinin NK3 (h), on Neurotensin NT1 (h) and at Orphanin ORL1 (h) was under 50% each time. The inhibition at 10 µM on Prostaglandin EP4 (h) and at Glucocorticoid GR (h) was under 50% throughout. In addition, the “binding at 10 μM” value on Adenosine A2A (h) was “NB (inhibited less than 50% of radioligand bound to them, and therefore it can be concluded they do not bind (“no binding,” NB))”; in data set [5], “NB (inhibited less than 50% of radioligand bound to them, and therefore it can be concluded they do not bind (“no binding,” NB))”; with TNF-α (h), “NB (inhibited less than 50% of radioligand bound to them, and therefore it can be concluded they do not bind (“no binding,” NB))”; with PCP (rat cortex), “NB (inhibited less than 50% of radioligand bound to them, and therefore it can be concluded they do not bind (“no binding,” NB))”.

`COc1cc(CC(C)N)c(OC)cc1I` (racemic) [DOI, (±)-2,5-dimethoxy-4-iodoamphetamine, reference compound]: a half-maximal effect on 5-HT2C receptor (EC50) was put at 8 nM. The compound further displayed an Emax at 5-HT2C receptor of about 108%. Moreover, the inhibition at 10 µM is at least 80% at 5-HT1A (h); under 50% on Dopamine D3 (h) (read-out: binding at 10 μM); 61.7% inhibition at 10 μM in [2]; under 50% in data set [3]; under 50% in data set [4]; under 50% at Endothelin ETA (h). Further, the inhibition at 10 µM on Endothelin ETB (h), on Chemokine CCR1 (h), on Muscarinic M2 (h), on Tachykinin NK3 (h), at Neurotensin NT1 (h) and at Orphanin ORL1 (h) was under 50% in each case. For the same compound, the inhibition at 10 µM on Prostaglandin EP4 (h) and at Glucocorticoid GR (h) was under 50% each time. Further, the “binding at 10 μM” value on Adenosine A2A (h) was “NB (inhibited less than 50% of radioligand bound to them, and therefore it can be concluded they do not bind (“no binding,” NB))”; in [5], “NB (inhibited less than 50% of radioligand bound to them, and therefore it can be concluded they do not bind (“no binding,” NB))”; in the data set on TNF-α (h) it was “NB (inhibited less than 50% of radioligand bound to them, and therefore it can be concluded they do not bind (“no binding,” NB))”; in the data set with PCP (rat cortex) it was “NB (inhibited less than 50% of radioligand bound to them, and therefore it can be concluded they do not bind (“no binding,” NB))”.
